{"source": "patent US4948880A", "about": "“Anthracycline derivatives having cytostatic activity” (Behringwerke Aktiengesellschaft, priority 1986, dated 1990)", "key": {"[1]": {"test_system": "mouse L1210 leukemia cells", "assay": "Formation of L1210 leukemia cell colonies in soft agar (cytostatic activity)", "assay_type": "cell-based", "details": "Mus musculus, colonies > 60 μm, % of untreated control", "description": "The cytostatic activity of the compounds according to the invention have been tested using mouse L1210 leukemia cells. Use was made for this by the formation of L1210 leukemia cell colonies in agar plates. This method is used to detect the effect of the test substances on the growth behavior of the cells over 1 hour or over several generations. In this connection, with a cell cycle time of 10-12 hours, about 14 consecutive generations are observed in a 7-day duration of the test. In this test, the substances having cytostatic activity according to the invention bring about a reduction, compared with an untreated control sample, in the number of colonies which is to be observed.\nProcedure for Determining the Formation of L1210 Leukemia Cell Colonies in Soft Agar\n500 leukemia cells per plate were incubated with various concentrations of the test substance at 37° C. for 1 hour. These cells were then washed twice with McCoy 5A medium, 0.3% agar was added, and finally the mixture was poured into Petri dishes. Controls were incubated only with fresh medium. In place of the incubation for one hour, in some cases various concentrations and test substances were mixed with the upper agar layer in order in this way to achieve continuous exposure of the cells throughout the incubation time. After the agar had solidified, the plates were incubated in an incubator at 37° C. for 7 days (5% by volume CO2, 95% relative atmospheric humidity). Thereafter the number of colonies with a diameter of more than 60 μm which had formed was counted. The results have been stated as the number of colonies in treated agar plates as a percentage of the untreated control. The dose-effect graph obtained in this way was used to determine the IC50 as a measure of the activity of the substance. The results for the compounds described here are compiled in Table 1 which follows, comparing with adriamycin."}, "[2]": {"details": "light / sunlight; cited from earlier work"}}, "note": "Read-outs that look alike come from different tables or passages of the source.", "data": [{"smiles": "COc1cccc2c1C(=O)c1c(O)c3c(c(O)c1C2=O)C[C@@](O)(C(=O)CO)C[C@@H]3O[C@H]1C[C@H](N)[C@H](O)[C@H](C)O1", "note": "[Adriamycin, 7-O-α-L-daunosaminyl-adriamycinone, reference compound]", "values": [{"measurement": "IC50", "setting": "[1]; L1210, 168 h, read-out: Continuous incubation IC50, continuous exposure, test substance mixed with upper agar layer, 7 days, 37° C.", "result": 0.02, "unit": "µg/mL"}, {"measurement": "IC50", "setting": "[1]; L1210, read-out: 1 h incubation IC50, 1 hour incubation with test substance at 37° C., then washed, 7 days in agar", "result": 0.04, "unit": "µg/mL"}, {"measurement": "photolytic decomposition on exposure to light", "setting": "[2]", "result": "photolytically decomposed on exposure to light"}]}, {"smiles": "CC[C@@]1(O)C[C@H](O[C@H]2C[C@H](N(C)C)[C@H](O[C@H]3C[C@H](O)[C@H](O[C@H]4CCC(=O)[C@H](C)O4)[C@H](C)O3)[C@H](C)O2)c2c(cc3c(c2O)C(=O)c2c(O)cccc2C3=O)[C@H]1C(=O)OC", "note": "[aclacinomycin A]", "values": [{"measurement": "photolytic decomposition on exposure to light", "setting": "[2]", "result": "undergoes photolytic decomposition to a small extent"}]}]}
